From patent US20050209195A1, “Indolinone derivatives” (Cell Therapeutics Europe S.r.I, priority 2004, published 2005)

Key:
[1] = target: T1, Human cKit Tyrosine Kinase Receptor (human cKit RTK-catalytic domain) (Homo sapiens, UniProt P10721); assay: DELFIA cKit Tyrosine Kinase Assay (cell-free); assay type: biochemical; settings: cell-free DELFIA, 25 ng cKit TKR, 150 μM ATP, 20 minutes at 30° C.; read-out: IC50
T1 construct: human cKit RTK-catalytic domain; purchased Panvera-Invitrogen P3080
Protocol: The compounds of the invention were tested with a dedicated cell-free kinase assay for the evaluation of the inhibiting activity on tyrosine kinases.
In more detail, the assay was a DELFIA™ (Dissociation Enhanced Time-Resolved Fluorometric Assay) Tyrosine Kinase Assay™ (PerkinElmer), a highly sensitive, reproducible ELISA assay that allows to evaluate the activity of a tyrosine kinase.
Human cKit Tyrosine Kinase Receptor (human cKit RTK-catalytic domain), commercially available from Panvera-Invitrogen (Cat. N^o. P3080), was used as the tyrosine kinase.
After 1 hour incubation at room temperature and three washings with 1×DELFIA Wash Buffer (PerkinElmer), the phosphotyrosine residues of the acceptor were detected with an europium-labelled anti-phosphotyrosine monoclonal antibody (DELFIA Eu-N1 labelled anti-phosphotyrosine antibody PT66, PerkinElmer) and, after a further hour incubation at room temperature and three washings with 1×DELFIA Wash Buffer, overall phosphorylation of biotinylated polyGAT was determined by addition of Enhancement Solution (PerkinElmer) and fluorimetric analysis of the plates (α-Fusion FP HT, PerkinElmer) in the “Time-Resolved Fluorescence” mode.

[2] = target: T2, human Ret TKR-catalytic domain (Homo sapiens, UniProt P07949); assay: DELFIA Ret Kinase Assay (cell-free); assay type: biochemical; settings: cell-free DELFIA, 50 ng Ret TKR, 3 μM ATP, 10 min. at 30° C.; read-out: IC50
T2 construct: human Ret TKR-catalytic domain; purchased ProQinase
T2 sequence (P07949 724-1016 limits assumed): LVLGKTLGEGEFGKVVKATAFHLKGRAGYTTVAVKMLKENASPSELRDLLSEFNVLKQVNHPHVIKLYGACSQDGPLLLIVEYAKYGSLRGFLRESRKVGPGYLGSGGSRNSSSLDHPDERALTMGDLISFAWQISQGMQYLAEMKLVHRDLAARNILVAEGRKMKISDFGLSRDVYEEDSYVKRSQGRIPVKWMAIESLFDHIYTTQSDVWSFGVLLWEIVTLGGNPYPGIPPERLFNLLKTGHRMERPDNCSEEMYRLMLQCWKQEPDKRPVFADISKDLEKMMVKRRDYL
Protocol: In order to evidence and quantify inhibitory activity on Ret tyrosine kinase, the most representative compounds of the invention were tested with a dedicated DELFIA kinase assay, using a human tyrosine-kinase receptor (Ret TKR) recombinant form (human Ret TKR-catalytic domain) available from ProQinase as the tyrosine kinase.
After 10 min. incubation at 30° C., the kinase reactions were worked up as in the DELFIA cKit Kinase Assay.

[3] = test system: NIH3T3^MEN2A(C634R) cells; assay: Survival curves by Coulter Counter cell count, 72 h; assay type: cell-based, murine; settings: Mus musculus, NIH3T3MEN2A, 72 h treatment, read-out: Cont at 72 h IC50
Protocol: (§1) NIH3T3 Murine fibroblasts and the transfected line NIH3T3^MEN2A(C634R) were treated with increasing concentrations of the compounds of the invention for 72 h. Survival curves were obtained by Coulter Counter cell count. IC50s calculated from said curves are reported in Table 9: the higher sensitivity of the oncoprotein-expressing cell line is evident. The reversal of the morphologically transformed phenotype of NIH3T3^MEN2A (C634R) cells in the presence of the compounds of the invention was evaluated by contrast phase microscopy after 24 h treatment and photographically documented.

[4] = test system: NIH3T3^MEN2A(C634R) cells; assay: Reversal of morphologically transformed phenotype, contrast phase microscopy, 24 h; assay type: cell-based, murine; settings: 24 h treatment; for minimal effective concentration: Mus musculus, NIH3T3MEN2A, read-out: Morphology a 24 h: concentration from which reversal was observed
Protocol: as §1

[5] = test system: NIH3T3 cells transformed by oncoprotein Ret/ptc1; settings: cited from earlier work
[6] = test system: Ret/MEN2A (mutC634R and mutC634W); settings: cited from earlier work
[7] = target: Ret/MEN2B (mutM918T) (Homo sapiens, UniProt P07949, M918T); settings: cited from earlier work
Ret/MEN2B (mutM918T), sequence (P07949 29-1114 M918T): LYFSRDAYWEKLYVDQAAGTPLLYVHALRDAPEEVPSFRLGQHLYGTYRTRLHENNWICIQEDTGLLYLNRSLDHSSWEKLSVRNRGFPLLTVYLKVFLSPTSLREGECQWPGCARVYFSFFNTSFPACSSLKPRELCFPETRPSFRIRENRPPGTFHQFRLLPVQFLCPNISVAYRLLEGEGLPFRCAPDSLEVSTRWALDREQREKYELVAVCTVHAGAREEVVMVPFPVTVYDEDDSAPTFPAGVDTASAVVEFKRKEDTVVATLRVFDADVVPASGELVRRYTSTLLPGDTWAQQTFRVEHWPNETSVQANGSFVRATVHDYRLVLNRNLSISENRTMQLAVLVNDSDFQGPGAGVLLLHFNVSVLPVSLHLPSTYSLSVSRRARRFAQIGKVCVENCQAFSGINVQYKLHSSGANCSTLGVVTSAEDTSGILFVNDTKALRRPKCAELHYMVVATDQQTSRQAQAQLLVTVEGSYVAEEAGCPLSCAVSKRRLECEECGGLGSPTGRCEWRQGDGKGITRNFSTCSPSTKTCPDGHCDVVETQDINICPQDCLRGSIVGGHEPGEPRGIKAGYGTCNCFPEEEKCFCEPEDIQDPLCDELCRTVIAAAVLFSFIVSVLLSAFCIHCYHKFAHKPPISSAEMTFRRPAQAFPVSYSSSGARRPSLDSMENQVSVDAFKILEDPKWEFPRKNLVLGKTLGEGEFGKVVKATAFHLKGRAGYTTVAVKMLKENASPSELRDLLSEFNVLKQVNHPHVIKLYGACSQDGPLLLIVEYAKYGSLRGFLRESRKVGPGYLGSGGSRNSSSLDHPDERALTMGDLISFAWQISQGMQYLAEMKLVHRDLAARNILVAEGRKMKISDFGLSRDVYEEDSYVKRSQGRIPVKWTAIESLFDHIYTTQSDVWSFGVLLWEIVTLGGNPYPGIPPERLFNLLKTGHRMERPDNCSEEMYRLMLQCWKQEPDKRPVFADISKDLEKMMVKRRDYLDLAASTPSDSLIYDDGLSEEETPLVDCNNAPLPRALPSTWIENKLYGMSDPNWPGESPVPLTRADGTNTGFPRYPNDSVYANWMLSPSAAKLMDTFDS

[8] = target: Met (Homo sapiens, UniProt P08581); settings: cited from earlier work
Met, sequence (P08581 25-1390): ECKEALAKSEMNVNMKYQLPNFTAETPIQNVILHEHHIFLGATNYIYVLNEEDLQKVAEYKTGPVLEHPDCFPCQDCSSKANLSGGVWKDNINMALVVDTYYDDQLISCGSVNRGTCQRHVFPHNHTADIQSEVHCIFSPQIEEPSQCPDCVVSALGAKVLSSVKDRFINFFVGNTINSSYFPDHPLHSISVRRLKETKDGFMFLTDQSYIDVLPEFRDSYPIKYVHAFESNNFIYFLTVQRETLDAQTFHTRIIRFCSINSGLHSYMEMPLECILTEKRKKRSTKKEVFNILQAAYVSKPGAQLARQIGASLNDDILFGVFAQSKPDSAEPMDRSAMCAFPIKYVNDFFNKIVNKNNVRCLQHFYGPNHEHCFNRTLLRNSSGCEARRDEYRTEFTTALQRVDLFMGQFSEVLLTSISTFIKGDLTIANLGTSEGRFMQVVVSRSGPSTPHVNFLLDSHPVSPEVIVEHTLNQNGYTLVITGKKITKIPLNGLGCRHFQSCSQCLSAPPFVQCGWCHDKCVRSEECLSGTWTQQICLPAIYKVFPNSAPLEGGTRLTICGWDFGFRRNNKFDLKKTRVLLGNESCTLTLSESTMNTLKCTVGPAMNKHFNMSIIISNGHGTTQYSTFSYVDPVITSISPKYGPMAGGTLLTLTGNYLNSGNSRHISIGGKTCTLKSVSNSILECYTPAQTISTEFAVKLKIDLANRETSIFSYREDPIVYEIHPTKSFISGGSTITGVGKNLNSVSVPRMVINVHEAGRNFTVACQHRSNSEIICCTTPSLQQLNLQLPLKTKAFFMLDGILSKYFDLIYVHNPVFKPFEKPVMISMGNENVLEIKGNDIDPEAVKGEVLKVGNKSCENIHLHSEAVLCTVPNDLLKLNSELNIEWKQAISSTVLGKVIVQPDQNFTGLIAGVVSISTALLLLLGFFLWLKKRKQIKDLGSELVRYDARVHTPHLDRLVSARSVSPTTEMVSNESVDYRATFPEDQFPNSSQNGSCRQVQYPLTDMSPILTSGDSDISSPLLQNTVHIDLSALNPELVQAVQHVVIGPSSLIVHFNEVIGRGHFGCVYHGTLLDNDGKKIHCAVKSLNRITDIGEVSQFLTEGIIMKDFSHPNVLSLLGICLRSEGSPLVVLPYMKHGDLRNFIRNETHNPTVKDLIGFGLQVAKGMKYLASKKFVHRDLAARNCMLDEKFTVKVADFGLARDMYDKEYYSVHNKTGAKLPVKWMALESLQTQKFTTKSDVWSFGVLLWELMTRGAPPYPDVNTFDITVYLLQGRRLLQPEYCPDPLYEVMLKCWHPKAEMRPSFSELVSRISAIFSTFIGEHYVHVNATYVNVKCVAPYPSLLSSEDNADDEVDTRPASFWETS

[9] = test system: PDGF-R; settings: cited from earlier work
[10] = target: FGF-R1 (Homo sapiens, UniProt P11362); settings: cited from earlier work
FGF-R1, sequence (P11362 22-822, species assumed): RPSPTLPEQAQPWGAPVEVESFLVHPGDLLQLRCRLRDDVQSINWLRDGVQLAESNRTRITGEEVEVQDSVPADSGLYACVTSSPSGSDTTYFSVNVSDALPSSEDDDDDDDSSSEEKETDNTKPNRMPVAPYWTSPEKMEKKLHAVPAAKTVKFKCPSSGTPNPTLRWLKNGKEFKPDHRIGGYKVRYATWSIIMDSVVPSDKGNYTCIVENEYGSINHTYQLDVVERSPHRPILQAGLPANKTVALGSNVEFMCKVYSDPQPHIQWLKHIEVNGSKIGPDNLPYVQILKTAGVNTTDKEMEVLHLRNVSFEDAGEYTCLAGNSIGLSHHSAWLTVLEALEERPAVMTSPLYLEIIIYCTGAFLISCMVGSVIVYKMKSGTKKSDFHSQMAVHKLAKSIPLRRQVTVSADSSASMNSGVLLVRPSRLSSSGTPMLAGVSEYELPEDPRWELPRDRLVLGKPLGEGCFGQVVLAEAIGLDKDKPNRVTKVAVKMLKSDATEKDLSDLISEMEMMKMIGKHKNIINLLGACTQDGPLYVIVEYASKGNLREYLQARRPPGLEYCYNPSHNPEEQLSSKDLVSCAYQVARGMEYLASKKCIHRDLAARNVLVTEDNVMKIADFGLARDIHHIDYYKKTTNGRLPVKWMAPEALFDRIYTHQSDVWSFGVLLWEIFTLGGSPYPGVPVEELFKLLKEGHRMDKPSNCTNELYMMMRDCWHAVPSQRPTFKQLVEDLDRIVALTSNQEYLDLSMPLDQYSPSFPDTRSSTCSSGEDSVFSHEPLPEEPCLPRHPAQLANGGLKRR

[11] = target: FGF-R3 (Homo sapiens, UniProt P22607); settings: cited from earlier work
FGF-R3, sequence (P22607 23-806, species assumed): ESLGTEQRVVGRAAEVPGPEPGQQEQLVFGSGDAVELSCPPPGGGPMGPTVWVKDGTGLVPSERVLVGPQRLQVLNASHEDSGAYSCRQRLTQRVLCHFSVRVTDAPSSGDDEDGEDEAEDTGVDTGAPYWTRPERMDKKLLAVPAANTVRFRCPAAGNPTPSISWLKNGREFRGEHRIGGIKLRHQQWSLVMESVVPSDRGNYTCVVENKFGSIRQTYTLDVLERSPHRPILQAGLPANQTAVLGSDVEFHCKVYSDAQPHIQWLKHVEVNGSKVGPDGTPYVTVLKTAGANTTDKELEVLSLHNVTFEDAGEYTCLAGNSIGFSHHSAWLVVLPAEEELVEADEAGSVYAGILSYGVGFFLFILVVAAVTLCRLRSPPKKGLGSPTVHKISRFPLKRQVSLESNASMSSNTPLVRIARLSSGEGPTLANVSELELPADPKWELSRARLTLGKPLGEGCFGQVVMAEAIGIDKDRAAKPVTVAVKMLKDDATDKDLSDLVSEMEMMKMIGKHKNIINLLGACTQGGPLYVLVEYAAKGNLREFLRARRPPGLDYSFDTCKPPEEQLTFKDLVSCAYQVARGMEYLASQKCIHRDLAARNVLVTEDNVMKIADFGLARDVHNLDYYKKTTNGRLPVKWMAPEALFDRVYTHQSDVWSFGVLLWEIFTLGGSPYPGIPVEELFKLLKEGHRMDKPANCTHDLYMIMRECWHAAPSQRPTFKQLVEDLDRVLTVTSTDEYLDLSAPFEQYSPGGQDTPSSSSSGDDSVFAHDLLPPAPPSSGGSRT

[12] = test system: Kit (c-Kit and mutΔ559); settings: cited from earlier work
[13] = test system: tyrosine kinases Ret/MEN2A, Ret/MEN2B, Met, PDGF-R, FGF-R1, FGF-R3 and Kit; settings: cited from earlier work
[14] = test system: cells transformed by Ret/MEN2A, Ret/MEN2B, Met, PDGF-R, FGF-R1, FGF-R3 and Kit; settings: cited from earlier work

T1 sequence (P10721 589-937 limits assumed): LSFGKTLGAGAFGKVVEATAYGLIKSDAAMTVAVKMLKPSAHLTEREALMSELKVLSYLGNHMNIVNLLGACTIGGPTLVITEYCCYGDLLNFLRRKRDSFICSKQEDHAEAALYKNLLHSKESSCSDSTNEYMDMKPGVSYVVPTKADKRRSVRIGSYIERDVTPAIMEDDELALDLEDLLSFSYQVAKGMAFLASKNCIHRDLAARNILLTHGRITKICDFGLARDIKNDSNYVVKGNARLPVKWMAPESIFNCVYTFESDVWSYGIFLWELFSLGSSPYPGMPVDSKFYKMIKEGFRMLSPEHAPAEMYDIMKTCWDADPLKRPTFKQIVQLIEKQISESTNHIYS

Row | Compound | IC50 [1] [µM] | IC50 [2] [µM] | IC50 [3] [µM] | Morphology a 24 h [4] | minimal effective concentration [4] [µM] | restoring the normal phenotype in transformed cells [5] | inhibition of self-phosphorylation [6] | inhibition of self-phosphorylation [7] | inhibition of self-phosphorylation [8] | inhibition of self-phosphorylation [9] | inhibition of self-phosphorylation [10] | inhibition of self-phosphorylation [11] | inhibition of self-phosphorylation [12] | down regulation of tyrosine kinase expression [13] | restoring the phenotype of transformed cells [14] | melting point [°C]
1 | COc1cc2c(cc1OC)/C(=C\c1ccc(O)cc1)C(=O)N2 [(E)-1,3-dihydro-4-hydroxybenzylidene-5,6-dimethoxy-1H-indol-2-one] | 2.37 ± 0.68 | 3.67 | 3.6 ± 1.6 | REVERSAL | ≥ 6 | restoring the normal phenotype | fully inhibiting | fully inhibiting | fully inhibiting | fully inhibiting | fully inhibiting | fully inhibiting | fully inhibiting | down regulating their expression | restoring the phenotype of cells transformed by them | 
2 | COc1cc2c(cc1OC)/C(=C\c1ccc(OC(=O)N3CCC(N4CCCCC4)CC3)cc1)C(=O)N2 [B.5, 4-(1′-Piperidinyl)-1-piperidinecarboxylic Acid, (E)-4-(5,6-dimethoxy-2-oxo-1,2-dihydro-indol-3-ylidenemethyl)phenyl Ester] | 4.68 | 2.17 | 2 ± 0.7 | REVERSAL | ≥ 5 |  |  |  |  |  |  |  |  |  |  | 235 to 237
3 | COc1cc2c(cc1OC)/C(=C\c1ccc(OC(=O)N3CCN(C)CC3)cc1)C(=O)N2 [Example B.1, (E)-4-methyl-piperazine-1-carboxylic Acid, 4-(5,6-dimethoxy-2-oxo-1,2-dihydro-indol-3-ylidenemethyl)phenyl Ester] | 4.46 | 13.3 | 2.8 ± 0.5 | REVERSAL | ≥ 10 |  |  |  |  |  |  |  |  |  |  | 198 to 200
4 | COc1cc2c(cc1OC)/C(=C\c1ccc(OP(=O)(O)O)cc1)C(=O)N2 [Example C.1, (E)-4-(5,6-dimethoxy-2-oxo-1,2-dihydro-indol-3-ylidenemethyl)phenyl Phosphoric Acid] | 51.8 | 2.61 | 3.9 ± 0.25 | REVERSAL | ≥ 10 |  |  |  |  |  |  |  |  |  |  | 218 to 220
5 | COc1ccc(OC(=O)Oc2ccc(/C=C3/C(=O)Nc4cc(OC)c(OC)cc43)cc2)cc1 [Example H.1, (E)-4-(5,6-dimethoxy-2-oxo-1,2-dihydro-indol-3-ylidenemethyl)phenyl, 4-methoxyphenyl Carbonate] | 1.19 | 4.43 | 3.3 ± 0.03 | REVERSAL | ≥ 10 |  |  |  |  |  |  |  |  |  |  | 165 to 167
